The text below walks through data of patent US20250091994A1, “RAS/RAF BINDING INHIBITOR COMPOUND” (NATIONAL UNIVERSITY CORPORATION KOBE UNIVERSITY, priority 2021, published 2025).

Experiment [1] deals with GTPγS-bound human HRasG12V / human c-Raf-1 Ras binding domain (RBD) (Homo sapiens (Human), UniProt P01112, G12V). Put plainly: Ras-Raf binding inhibition ELISA. On the procedure:
The in vitro Ras-Raf binding inhibitory activity of the compound of the present invention was evaluated by an ELISA method (Enzyme-Linked ImmunoSorbent Assay) described below.
Ras and Raf used upon the evaluation were purified and activated by the following method.
Using a pGEX6P-1 vector (GE Healthcare), human HRasG12V (full length, 1-189 amino acid residues) and human c-Raf-1 Ras binding domain (RBD) (50-131 amino acid residues) were each allowed to express as a fusion body with glutathione S-transferase (GST) in E. coli.
GST-HRasG12V-expressing cells were subjected to ultrasonication in a buffer {50 mM Tris-HCl pH 7.4, 150 mM NaCl, 5 mM MgCl2, 1 mM ethylenediaminetetraacetic acid (EDTA), 1 mM dithiothreitol (DTT), 10% glycerol, and 1% Triton-X100}, and were then centrifuged at 100,000×g for 30 minutes, so as to collect the supernatant as a Ras protein fraction. HRasG12V in the supernatant was immobilized on a glutathione-agarose resin, and GST was then cleaved with PreScission Protease (GE Healthcare) for purification. The obtained HRasG12V was mixed with guanosine 5′-O-[gamma-thio]triphosphate trisodium salt (GTPTS) of 1000 times higher concentration at 30° C. for 1 hour, and thereafter, 20 mM MgCl2 (final concentration) was added to stop the reaction and collect the GTPgS-loaded HRasG12V as a product.
On the other hand, GST-c-Raf-1 RBD-expressing cells were subjected to ultrasonication in the same buffer as described above, and were then centrifuged at 100,000×g for 30 minutes, so as to collected the supernatant as a GST-c-Raf-1 RBD protein fraction.
The in vitro Ras-Raf binding inhibitory activity of the compound of the present invention was evaluated by an ELISA method described below.
GST-c-Raf-1 RBD diluted with a Ras-Raf binding buffer (50 mM Tris-HCl pH7.4, 150 mM NaCl, 5 mM MgCl2, 1 mM EDTA, and 1% Triton-X100) was added to each well of a glutathione-coated 96-well plate (Thermo Fisher Scientific.), and was incubated at 30° C. for 1 hour, to immobilize Raf on the well. The unbound free Raf was eliminated by washing the well with the Ras-Raf binding buffer three times. Subsequently, GTPTS-bound HRasG12V diluted with the Ras-Raf binding buffer and each compound solution (final DMSO concentration: 10%) were applied to each well, and the resulting mixture was then incubated at 30° C. for 1 hour, so that Ras and Raf were allowed to bind to each other. Thereafter, the plate was washed with the Ras-Raf binding buffer twice, and was then subjected to a blocking treatment at room temperature for 20 minutes, using TBS-Tween {10 mM Tris-HCl pH 7.4, 150 mM NaCl, and 0.05% (w/v) Tween-20}-5% (w/v) bovine serum albumin (BSA). After that, an anti-HRas antibody (C-20, Santa Cruz) or an anti-HRas antibody (259, Santa Cruz), which had been 1000 times diluted with TBS-Tween-5% BSA, was added to the reaction mixture, and incubated at room temperature for 1 hours. After the treatment with the primary antibody, the plate was washed with TBS-Tween-5% BSA three times, and a horseradish peroxidase-labeled secondary antibody against rabbit immunoglobulin G (GE Healthcare) of 1000 times diluted with TBS-Tween-5% BSA, was added to the plate, followed by incubation at room temperature for 1 hour. After the treatment with the secondary antibody, the plate was washed with TBS-Tween-5% BSA three times, and a substrate solution (TMB) was then added to the plate, followed by incubation at room temperature for 15 minutes for coloration. Finally, 2 M H2SO4 was added to stop color development (coloration reaction kit: Nacalai Tesque). The absorbance at 450 nm (OD450) was measured, so that the color intensity was quantified. Inhibition by the test compound was determined according to the following equation: […]
IC50 (*) in which the anti-HRas antibody (259, Santa Cruz) was used

The subject of experiment [2] is acute lymphoblastic leukemia cells CCRF-CEM (K-RasG12D). The experiment can be described thus: Cell growth inhibition, suspension cells CCRF-CEM. The experiment is classed as cell-based. As to conditions: Homo sapiens, 72 hours; for inhibition at 1 µM: read-out: CCRF-CEM (KRasG12D) % inhibition at 1 μM; for inhibition at 10 µM: read-out: CCRF-CEM (KRasG12D) % inhibition at 10 μM (**). The method, then: (§1) The cell growth inhibitory activity of the compound of the present invention on human culture cells having active-type mutation in Ras was evaluated by the below-mentioned method using suspension cancer cells {acute lymphoblastic leukemia cells CCRF-CEM (K-RasG12D), promyelocytic leukemia cells HL60 (N-RasQ61L), acute lymphoblastic leukemia cells MOLT4 (N-RasG12C), and small cell lung cancer cells SHP77 (K-RasG12V)} and adherent cancer cells {large bowel cancer cells SW480 (K-RasG12V) and large bowel cancer cell SW620 (K-RasG12V)}.
(§2) (Case of suspension cells) The cells suspended in a medium containing 0.5% (v/v) fetal bovine serum (FBS) and each compound solution (final DMSO concentration: 1%) were seeded on a 96-well plate (2 to 4×10^4 cells/well), and the resulting mixture was then cultured at 37° C. in the presence of 5% CO2 for 72 hours.
(§3) Thereafter, the number of viable cells was measured using Cell Counting Reagent (Nacalai Tesque) in accordance with the manufacturer's instructions. Inhibition by the test compound was determined according to the following equation: […]

The subject of experiment [3] is promyelocytic leukemia cells HL60 (N-RasQ61L). The experiment can be described thus: Cell growth inhibition, suspension cells HL60. As to conditions: Homo sapiens, HL-60, 72 hours; for inhibition at 10 µM: read-out: HL-60 (NRasQ61L) % inhibition at 10 μM (***); for inhibition at 1 µM: read-out: HL-60 (NRasQ61L) % inhibition at 1 μM; for inhibition at 3.2 µM: read-out: HL-60 (NRasQ61L) % inhibition at 3.2 μM (****). The format is cell-based. On the procedure: as §1, §2, §3

Experiment [4] has as its system large bowel cancer cell SW620 (K-RasG12V). The experiment can be described thus: Cell growth inhibition, adherent cells SW620. The experiment is classed as cell-based. Conditions: Homo sapiens, SW-620, 72 hours; for inhibition at 1 µM: read-out: SW620 (KRasG12V) % inhibition at 1 μM; for inhibition at 3.2 µM: read-out: SW620 (KRasG12V) % inhibition at 3.2 μM (***). On the procedure:
as §1
(Case of adherent cells) The cells suspended in a medium containing 10% FBS (1 to 2×10^4 cells/well) were seeded on a 96-well plate, and were then cultured at 37° C. in the presence of […]. Thereafter, the medium was exchanged with a medium containing […], to which each compound solution (final DMSO concentration: […]) had been added, and the cells were then cultured at 37° C. in the presence of […] for 72 hours.
as §3

Where [5] appears, read: anti-HRas antibody C-20, read-out: ELISA IC50 (μM): 1st Ab_C-20.

Structures are written as SMILES. Read-outs that look alike come from different tables or passages of the source.

Chain of GTPγS-bound human HRasG12V / human c-Raf-1 Ras binding domain (RBD) (P01112 whole entry G12V, the tested form may be a part): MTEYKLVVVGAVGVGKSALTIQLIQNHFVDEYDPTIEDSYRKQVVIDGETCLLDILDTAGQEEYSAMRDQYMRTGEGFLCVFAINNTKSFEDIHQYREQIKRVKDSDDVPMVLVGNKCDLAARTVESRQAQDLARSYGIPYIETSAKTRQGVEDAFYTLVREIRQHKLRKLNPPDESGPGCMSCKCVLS

Regarding `CC(=O)N1/C(=C\c2ccc3cc(CO)ccc3n2)C(=O)c2ccccc21` [Example 33, (Z)-1-acetyl-2-((6-(hydroxymeth-yl)quinolin-2-yl)-methylene)indolin-3-one], the IC50 in experiment [1] (setting [5]) is 3.1 µM. For the same compound, the inhibition at 1 µM in experiment [2] was determined as 94%.
`CC(=O)N1/C(=C\c2ccc3cc(CN4CCOCC4)ccc3n2)C(=O)c2ccccc21` [Example 35, (Z)-1-acetyl-2-((6-(morpholino-methyl)quinolin-2-yl)methylene)-indolin-3-one]: the half-maximal inhibitory concentration (IC50) in experiment [1] (setting [5]) amounted to 2.6 µM. Also, the inhibition at 1 µM in experiment [2] is 40%.
In the case of `CC(=O)N1/C(=C/c2nc(C(=O)N3CCOCC3)cs2)C(=O)c2ccccc21` [Example 55, (E)-1-acetyl-2-((4-(morpholine-4-carbonyl)thiazol-2-yl)methylene)-indolin-3-one], the inhibition at 10 µM in experiment [2] is 78%; in experiment [3], 96%.
`CC(=O)N1/C(=C\c2ccc3cc(C(=O)N4CCS(=O)(=O)CC4)ccc3n2)C(=O)c2ccccc21` [Example 60, (Z)-1-acetyl-2-((6-(1,1-dioxido-thiomorpholine-4-carbonyl)quinolin-2-yl)methylene)-indolin-3-one]: the IC50 in experiment [1] (setting [5]) came to 6 µM. Besides, the inhibition at 10 µM in experiment [2] was found to be 99%.
For the compound `CC(=O)N1/C(=C\c2ccc(OS(C)(=O)=O)cn2)C(=O)c2ccccc21` [Example 61, (Z)-6-((1-acetyl-3-oxoindolin-2-ylidene)methyl)-pyridin-3-yl methanesulfonate], the 50% inhibitory concentration (IC50) in experiment [1] (setting [5]) amounted to 2.7 µM. The inhibition at 1 µM in experiment [2] is 35%.
Take `CC(=O)N1/C(=C\c2ccc3cc(CN(C)C4CCOCC4)ccc3n2)C(=O)c2ccccc21` [Example 71, (Z)-1-acetyl-2-((6-((methyl(tetra-hydro-2H-pyran-4-yl)amino)meth-yl)quinolin-2-yl)-methylene)indolin-3-one]: the half-inhibitory concentration (IC50) in experiment [1] (setting [5]) was 2.4 µM. The inhibition at 10 µM in experiment [2] was determined as 82%. Further, the inhibition at 1 µM in experiment [3] worked out at 41%.
For `CC(=O)N1/C(=C\c2cc(-c3ccccc3-c3ccccc3)c3cc(C(=O)N4CCN(C5COC5)CC4)ccc3n2)C(=O)c2ccccc21` [Example 95, (Z)-2-((4-([1,1′-biphenyl]-2-yl)-6-(4-(oxetan-3-yl)-piperazine-1-carbonyl)quinolin-2-yl)methylene)-1-acetylindolin-3-one], in experiment [1] (setting [5]), the IC50 worked out at 0.44 µM. In addition, in experiment [3] (1.1 μM (*), read-out: HL-60 (NRasQ61L) % inhibition at 1.1 μM (*)), the inhibition at 1.1 µM worked out at 88%. In addition, the inhibition at 1 µM in experiment [4] amounted to 70%.
As for `CC(=O)N1/C(=C\c2ccc3cc(CN4CCS(=O)(=O)CC4)ccc3n2)C(=O)c2ccccc21` [Example 107, (Z)-1-acetyl-2-((6-((1,1-dioxido-thiomorpholino)-methyl)quinolin-2-yl)methylene)-indolin-3-one], the 50% inhibitory concentration (IC50) in experiment [1] (setting [5]) came out at 1.7 µM. Further, the results for the inhibition at 10 µM in experiment [2] and in experiment [3] were 81% and 82%, respectively.
`CC(=O)N1/C(=C\c2ccc3cc(C(=O)N4CCC(N5CCOCC5)CC4)ccc3n2)C(=O)c2ccccc21` [Example 115, (Z)-1-acetyl-2-((6-(4-morpholino-piperidine-1-carbonyl)quinolin-2-yl)methylene)-indolin-3-one]: the half-maximal inhibitory concentration (IC50) in experiment [1] (setting [5]) worked out at 11 µM. Besides, in experiment [2], the inhibition at 10 µM was 98%.
In the case of `COCCN1CCN(C(=O)c2ccc3nc(/C=C4/C(=O)c5ccccc5N4C(C)=O)ccc3c2)CC1` [Example 116, (Z)-1-acetyl-2-((6-(4-(2-methoxy-ethyl)piperazine-1-carbonyl)quinolin-2-yl)methylene)-indolin-3-one], the inhibition at 10 µM in experiment [2] came to 98%.
As for `CC(=O)N1/C(=C\c2cc(-c3ccccc3-c3ccccc3)c3cc(C(=O)O)ccc3n2)C(=O)c2ccccc21` [Example 128, (Z)-4-([1,1′-biphenyl]-2-yl)-2-((1-acetyl-3-oxo-indolin-2-ylidene)-methyl)quinoline-6-carboxylic acid], in experiment [1] (setting [5]), the 50% inhibitory concentration (IC50) turned out to be 0.49 µM. For the same compound, the inhibition at 3.3 µM in experiment [3] (3.3 μM (**), read-out: HL-60 (NRasQ61L) % inhibition at 3.3 μM (**)) stood at 96%. Besides, the inhibition at 1 µM in experiment [4] was 70%.
Turning to `CC(=O)N1/C(=C\c2nc3cc(CNC4CCOCC4)ccc3s2)C(=O)c2ccccc21` [Example 132, (Z)-1-acetyl-2-((5-(((tetrahydro-2H-pyran-4-yl)-amino)methyl)-benzo[d]thiazol-2-yl)methylene)-indolin-3-one], the IC50 in experiment [1] (anti-HRas antibody 259 (*), read-out: ELISA IC50 (μM): 1st Ab_259 (*)) worked out at 1.2 µM. For the same compound, the inhibition at 1 µM came to 38% in experiment [2] and 42% in experiment [3].
In the case of `CC(=O)N1/C(=C\c2cc(-c3ccccc3-c3ccccc3)c3cc(C(N)=O)ccc3n2)C(=O)c2ccccc21` [Example 141, (Z)-4-([1,1′-biphenyl]-2-yl)-2-((1-acetyl-3-oxo-indolin-2-ylidene)-methyl)quinoline-6-carboxamide], the inhibition at 1 µM in experiment [1] amounted to 46.2%. For the same compound, the IC50 in experiment [1] (setting [5]) was found to be 1.2 µM. For the same compound, the inhibition at 3.2 µM turned out to be 94.6% in experiment [3] and 91.3% in experiment [4].
As to `CC(=O)N1/C(=C\c2cc(-c3ccccc3-c3ccccc3)c3cc(CNC4CCOCC4)ccc3n2)C(=O)c2ccccc21` [Example 143, (Z)-2-((4-([1,1′-biphenyl]-2-yl)-6-(((tetrahydro-2H-pyran-4-yl)amino)-methyl)quinolin-2-yl)methylene)-1-acetylindolin-3-one], the inhibition at 1 µM in experiment [1] is 44.3%. Further, in experiment [1] (setting [5]), the half-inhibitory concentration (IC50) amounted to 0.6 µM. Besides, the inhibition at 3.2 µM was 97.2% in experiment [3] and 79.3% in experiment [4].
